Data as given in US8742203B2, “Chemically Inducible Expression of Biosynthetic Pathways” (Metabolix, Inc., priority 2005, dated 2014).

Tested on: 1I Arabidopsis plants
Assay: PHB yield in 1I plants, foliar applications of tebufenozide
Assay type: in vivo, Arabidopsis thaliana
Description: The genes required for the complete PHB production pathway, a β-ketothiolase (thiolase), an NADPH-acetoacetyl-CoA reductase (reductase) and a PHA synthase (synthase), were individually placed under the control of the minimal ^35S ecdysone-inducible promoter, fused to a plastid targeting signal, and cloned into a pCAMBIA (Centre for Application of Molecular Biology to International Agriculture, Canberra, Australia) based multigene plasmid containing the chimeric ecdysone receptor (A. Martinez, C. Sparks, C. A. Hart, J. Thompson, I. Jepson, Plant J. 19: 97 (1999)). This three-gene inducible construct is designated 3I. The single-gene inducible construct designated 1I contained the thiolase gene under the control of the inducible promoter, but unlike the 3I construct, it expressed the reductase and synthase genes under the control of the constitutive 35S-C4PPDK promoter (W. Chiu et al. Curr. Biol. 6: 325 (1996)).
Further analysis of the 1I construct by screening an additional 235 T1 1I plants identified plants capable of producing 2.5% and 2.6% dwt PHB respectively, in the presence and absence of foliar applications of the inducing agent tebufenozide. The ability of this construct to promote PHB production in a non-inducible fashion was confirmed through analysis of 72 T2 offspring of the best T1 1I plant. […]

SMILES: CCc1ccc(C(=O)NN(C(=O)c2cc(C)cc(C)c2)C(C)(C)C)cc1 [tebufenozide]
- PHB produced by best plants (additional 235 T1 1I plants screened, in the presence of foliar tebufenozide): 2.5 % dwt
- Average PHB accumulated (treated T2 1I offspring of best T1 1I plant, in the presence of inducing agent): 4.2±2.5 % dwt
